Measurements published in ChEMBL document CHEMBL1201862, “PubChem BioAssay data set” (2004).
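Where inhibition never reached the appropriate level, the endpoint shown equals the highest concentration tested. Otherwise, values were interpolated linearly from a five-concentration, 48-hour dose response in 96-well plates. Here, GI50 denotes the concentration required for 50% inhibition of growth.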 Activity calls are given as the source filed them. Cut-off read from the data, not from the text of the source: active = GI50 up to about 1.1 µM and inactive = higher. Where a SMILES comes first, the peptide text is derived from it. [ ]: non-standard residue; d: D form. The star is where a group is joined. NMeF = CN[CH](Cc1ccccc1)C(=O)O; NMeV = CN[CH](C(=O)O)C(C)C; Boc = CC(C)(C)OC(=O)*; OBn = c1ccc(CO*)cc1

Experiments:
Assay in all cases: NCI tumour cell line growth inhibition, 48 h
NCI-H226 = tested on: NCI-H226
SW-620 = tested on: SW-620
OVCAR-4 = tested on: OVCAR-4
A549 = tested on: A549
TK-10 = tested on: TK-10
EKVX = tested on: EKVX
SF-268 = tested on: SF-268
UO-31 = tested on: UO-31
HOP-62 = tested on: HOP-62
LOX IMVI = tested on: LOX IMVI
A498 = tested on: A498
CCRF-CEM = tested on: CCRF-CEM
KM12 = tested on: KM12
SK-MEL-5 = tested on: SK-MEL-5
786-0 = tested on: 786-0
COLO 205 = tested on: COLO 205
HOP-92 = tested on: HOP-92

Measured: GI50

CC(C)(CN1CCCCC1)C(=O)CC(SCCN)c1ccc(Cl)cc1 (centres undefined)
inactive: NCI-H226 3.52 µM | SW-620 1.76 µM | OVCAR-4 3.1 µM | A549 2.88 µM | TK-10 2.26 µM | EKVX 1.74 µM | SF-268 2.78 µM | UO-31 3.35 µM | HOP-62 3.78 µM | LOX IMVI 2.09 µM | A498 2.32 µM | CCRF-CEM 1.55 µM | KM12 1.88 µM | SK-MEL-5 1.73 µM | 786-0 1.61 µM | COLO 205 1.6 µM

c1ccc(CNn2nnc3ccccc32)cc1
inactive: SW-620 > 100 µM | OVCAR-4 > 100 µM | A549 > 100 µM | TK-10 > 100 µM | EKVX > 100 µM | SF-268 > 100 µM | UO-31 > 100 µM | HOP-62 > 100 µM | LOX IMVI > 100 µM | HOP-92 > 100 µM | CCRF-CEM > 100 µM | KM12 > 100 µM | SK-MEL-5 > 100 µM | 786-0 > 100 µM | COLO 205 > 100 µM

COc1ccc(NC(=O)CC2SC(Nc3ccc(Cl)cc3C)=NC2=O)c([N+](=O)[O-])c1 (centres undefined)
inactive: NCI-H226 > 100 µM | SW-620 > 100 µM | OVCAR-4 > 100 µM | A549 > 100 µM | TK-10 > 100 µM | EKVX > 100 µM | SF-268 > 100 µM | UO-31 > 100 µM | LOX IMVI > 100 µM | A498 > 100 µM | HOP-92 > 100 µM | CCRF-CEM > 100 µM | SK-MEL-5 > 100 µM | 786-0 > 100 µM

Cc1cn(C2OC(C)(CO)C(O)C2O)c(=O)[nH]c1=O (centres undefined)
inactive: SW-620 > 100 µM | OVCAR-4 > 100 µM | A549 > 100 µM | TK-10 > 100 µM | SF-268 > 100 µM | UO-31 > 100 µM | HOP-62 > 100 µM | LOX IMVI > 100 µM | A498 > 100 µM | HOP-92 > 100 µM | CCRF-CEM > 100 µM | KM12 > 100 µM | SK-MEL-5 > 100 µM | 786-0 > 100 µM | COLO 205 > 100 µM

O=C(Nc1ccc(Cl)cc1C(F)(F)F)C(=O)C1CCCS1(=O)=O (centres undefined)
inactive: NCI-H226 > 100 µM | SW-620 > 10 µM | OVCAR-4 > 100 µM | A549 > 100 µM | TK-10 > 100 µM | EKVX > 100 µM | SF-268 > 100 µM | HOP-62 > 100 µM | LOX IMVI > 100 µM | A498 > 100 µM | HOP-92 > 10 µM | CCRF-CEM > 100 µM | KM12 > 100 µM | SK-MEL-5 > 100 µM | 786-0 > 100 µM | COLO 205 > 100 µM

N=C(N)NS(=O)(=O)c1ccc(NC(=O)c2ccc(Cl)c3c(Nc4ccc(S(=O)(=O)N=C(N)N)cc4)c4ccccc4nc23)cc1
inactive: SW-620 56.2 µM | OVCAR-4 > 100 µM | A549 > 100 µM | EKVX 56.8 µM | SF-268 > 100 µM | UO-31 83.9 µM | HOP-62 53.2 µM | LOX IMVI 50.9 µM | A498 > 100 µM | HOP-92 28.2 µM | CCRF-CEM 43.1 µM | KM12 24.5 µM | SK-MEL-5 > 10 µM | 786-0 > 100 µM | COLO 205 91.4 µM

O=Cc1ccccc1COC(=O)c1cc(C(=O)OCc2ccccc2C=O)c(C(=O)OCc2ccccc2C=O)cc1C(=O)OCc1ccccc1C=O
inactive: NCI-H226 > 100 µM | SW-620 > 100 µM | OVCAR-4 > 100 µM | A549 > 100 µM | TK-10 61.9 µM | EKVX > 100 µM | SF-268 69.2 µM | UO-31 > 100 µM | LOX IMVI 42 µM | A498 > 100 µM | HOP-92 31.6 µM | CCRF-CEM 43.4 µM | KM12 > 100 µM | SK-MEL-5 > 100 µM | 786-0 23.6 µM | COLO 205 > 100 µM

O=C(OC1CCC(=C2SCCCS2)[C@H]1C1SCCCS1)c1ccccc1 (some centres undefined)
inactive: NCI-H226 30.5 µM | SW-620 > 100 µM | OVCAR-4 84.5 µM | A549 > 100 µM | TK-10 > 100 µM | EKVX > 100 µM | UO-31 24.5 µM | HOP-62 > 100 µM | LOX IMVI > 100 µM | A498 > 100 µM | HOP-92 16.9 µM | CCRF-CEM > 100 µM | KM12 > 100 µM | 786-0 > 100 µM | COLO 205 > 100 µM

O=P1(Oc2ccccc2)C(c2ccccc2)C(c2ccccc2)=NN1c1ccccc1 (centres undefined)
inactive: NCI-H226 23.5 µM | SW-620 21.5 µM | OVCAR-4 31.6 µM | A549 29.2 µM | TK-10 38.7 µM | EKVX 37.3 µM | SF-268 29.4 µM | HOP-62 24.6 µM | LOX IMVI 17.3 µM | A498 29.6 µM | CCRF-CEM 30.4 µM | KM12 25.8 µM | 786-0 33.7 µM | COLO 205 18.9 µM

O=C1C2c3[nH]c4ccccc4c3C3CCCCC3C2C(=O)N1c1ccccc1 (centres undefined)
inactive: NCI-H226 > 100 µM | SW-620 > 100 µM | OVCAR-4 45.1 µM | A549 > 100 µM | TK-10 46.5 µM | EKVX > 100 µM | SF-268 72.9 µM | UO-31 > 100 µM | LOX IMVI > 100 µM | A498 36.2 µM | CCRF-CEM 85.1 µM | KM12 > 100 µM | SK-MEL-5 > 100 µM | 786-0 34.2 µM | COLO 205 > 100 µM

Cc1c(C)c([N+](=O)[O-])c2c(c1N)C(=O)c1ccccc1C2=O
inactive: NCI-H226 > 100 µM | SW-620 > 100 µM | A549 > 100 µM | TK-10 > 100 µM | EKVX > 100 µM | SF-268 > 100 µM | UO-31 > 100 µM | HOP-62 > 100 µM | LOX IMVI > 100 µM | A498 > 100 µM | HOP-92 > 100 µM | CCRF-CEM > 100 µM | KM12 > 100 µM | SK-MEL-5 > 100 µM | 786-0 65.5 µM | COLO 205 58.9 µM

Cc1nc(-c2cccnc2)sc1C(=O)/C=C/c1ccc(Cl)cc1Cl
inactive: NCI-H226 > 100 µM | SW-620 71.9 µM | A549 > 100 µM | TK-10 > 100 µM | EKVX > 100 µM | SF-268 > 100 µM | UO-31 > 100 µM | HOP-62 > 100 µM | LOX IMVI 95.3 µM | A498 > 100 µM | HOP-92 > 100 µM | CCRF-CEM 47.5 µM | KM12 > 100 µM | SK-MEL-5 > 100 µM | 786-0 > 100 µM | COLO 205 > 100 µM

CCC1(CC)C(=O)NC(=O)NC1=S
inactive: NCI-H226 > 100 µM | SW-620 > 100 µM | OVCAR-4 > 100 µM | A549 > 100 µM | TK-10 > 100 µM | EKVX > 100 µM | SF-268 > 100 µM | UO-31 > 100 µM | HOP-62 > 100 µM | LOX IMVI > 100 µM | A498 > 100 µM | HOP-92 > 100 µM | CCRF-CEM > 100 µM | 786-0 > 100 µM | COLO 205 > 100 µM

CC(=O)O[C@]12CCCC1C1(O)C(O)CCCC12 (some centres undefined)
inactive: NCI-H226 > 100 µM | SW-620 > 100 µM | OVCAR-4 > 100 µM | A549 > 100 µM | TK-10 > 100 µM | EKVX > 100 µM | SF-268 > 100 µM | UO-31 > 100 µM | HOP-62 > 100 µM | LOX IMVI > 100 µM | CCRF-CEM > 100 µM | KM12 > 100 µM | SK-MEL-5 > 100 µM | 786-0 > 100 µM | COLO 205 > 100 µM

NC1=NS(=O)(=O)Nc2nc(-c3ccc(Cl)cc3)[nH]c21
inactive: SW-620 > 100 µM | OVCAR-4 > 100 µM | A549 > 100 µM | TK-10 > 100 µM | SF-268 > 100 µM | UO-31 > 100 µM | HOP-62 > 100 µM | LOX IMVI > 100 µM | A498 > 100 µM | HOP-92 88.1 µM | CCRF-CEM > 100 µM | KM12 > 100 µM | SK-MEL-5 > 100 µM | 786-0 > 100 µM | COLO 205 > 100 µM

O=C(O)c1ccc(C2C3C=CC(C3)C2[N+](=O)[O-])cc1 (centres undefined)
inactive: NCI-H226 > 100 µM | SW-620 > 100 µM | A549 > 100 µM | TK-10 > 100 µM | EKVX > 100 µM | SF-268 > 100 µM | UO-31 > 100 µM | HOP-62 > 100 µM | LOX IMVI > 100 µM | A498 > 100 µM | CCRF-CEM > 100 µM | KM12 > 100 µM | SK-MEL-5 > 100 µM | 786-0 > 100 µM | COLO 205 > 100 µM

CC(C)C(NC(=O)OC(C)(C)C)C(=O)N(C)C(Cc1ccccc1)C(=O)N(C)C(C(=O)N(C)C(C(=O)OCc1ccccc1)C(C)C)C(C)C (centres undefined) (Boc-V[NMeF][NMeV][NMeV]-OBn; configuration not given here)
inactive: NCI-H226 > 100 µM | SW-620 > 100 µM | A549 > 100 µM | TK-10 > 100 µM | EKVX 89.1 µM | SF-268 > 100 µM | UO-31 > 100 µM | HOP-62 > 100 µM | LOX IMVI > 100 µM | CCRF-CEM 48.5 µM | KM12 > 100 µM | SK-MEL-5 12.5 µM | 786-0 > 100 µM | COLO 205 > 100 µM

[O-][n+]1c2c([n+]([O-])c3ccccc31)CCCCCCCCCC2
inactive: NCI-H226 14.2 µM | SW-620 > 100 µM | A549 > 100 µM | TK-10 > 100 µM | EKVX > 100 µM | SF-268 > 100 µM | UO-31 > 100 µM | LOX IMVI > 100 µM | HOP-92 67.8 µM | CCRF-CEM 85.7 µM | KM12 > 100 µM | 786-0 > 100 µM
